Measured values taken from PubChem BioAssay (NCI).
Values joined by “and” are separate entries in the source; they are usually repeats but may differ in a detail not shown here. Equal values may be shown once.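 GI50: concentration for 50% inhibition of growth. At the TGI there is no net growth.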

How the values were obtained:
Test in all cases: NCI tumour cell line growth inhibition, 384-well format
[1] = tested on: 786-0 renal
[2] = tested on: A498 renal
[3] = tested on: A549 NSCLC
[4] = tested on: ACHN renal
[5] = tested on: BT-549 breast
[6] = tested on: CAKI-1 renal
[7] = tested on: CCRF-CEM leukemia
[8] = tested on: COLO 205 colon
[9] = tested on: DU-145 prostate
[10] = tested on: EKVX NSCLC
[11] = tested on: HCC-2998 colon
[12] = tested on: HCT-116 colon
[13] = tested on: HCT-15 colon
[14] = tested on: HL-60(TB) leukemia
[15] = tested on: HOP-62 NSCLC
[16] = tested on: HOP-92 NSCLC
[17] = tested on: HS 578T breast
[18] = tested on: HT29 colon
[19] = tested on: IGROV1 ovarian
[20] = tested on: K-562 leukemia
[21] = tested on: KM12 colon
[22] = tested on: LOX IMVI melanoma
[23] = tested on: M14 melanoma
[24] = tested on: MALME-3M melanoma
[25] = tested on: MCF7 breast
[26] = tested on: MDA-MB-231 breast
[27] = tested on: MDA-MB-435 melanoma
[28] = tested on: MDA-MB-468 breast
[29] = tested on: MOLT-4 leukemia
[30] = tested on: NCI-H226 lung
[31] = tested on: NCI-H23 lung
[32] = tested on: NCI-H322M lung
[33] = tested on: NCI-H460 NSCLC
[34] = tested on: NCI-H522 lung
[35] = tested on: NCI/ADR-RES ovarian
[36] = tested on: OVCAR-3 ovarian
[37] = tested on: OVCAR-4 ovarian
[38] = tested on: OVCAR-5 ovarian
[39] = tested on: OVCAR-8 ovarian
[40] = tested on: PC-3 prostate
[41] = tested on: RPMI-8226 leukemia
[42] = tested on: RXF 393 renal
[43] = tested on: SF-268 CNS
[44] = tested on: SF-295 CNS
[45] = tested on: SF-539 CNS
[46] = tested on: SK-MEL-2 melanoma
[47] = tested on: SK-MEL-28 melanoma
[48] = tested on: SK-MEL-5 melanoma
[49] = tested on: SK-OV-3 ovarian
[50] = tested on: SN12C renal
[51] = tested on: SNB-19 CNS
[52] = tested on: SNB-75 CNS
[53] = tested on: SR leukemia
[54] = tested on: SW-620 colon
[55] = tested on: T-47D breast
[56] = tested on: TK-10 renal
[57] = tested on: U251 glioblastoma
[58] = tested on: UACC-62 melanoma
[59] = tested on: UO-31 renal

`Nc1nc2[nH]cc(CCc3ccc(C(=O)N[C@@H](CCC(=O)O)C(=O)O)cc3)c2c(=O)[nH]1` was tested, and the GI50 [1] was 33.5 nM and 30.5 nM, the TGI [1] was 50000 nM and 8170 nM and the TGI [2] was 50000 nM and > 100000 nM. The GI50 [3] was 355 nM and 294 nM, the TGI [3] was 50000 nM and > 100000 nM and the GI50 [4] was 180 nM and 80.4 nM. The TGI [4] was 50000 nM and > 100000 nM, the GI50 [5] was 194 nM and 37.6 nM and the GI50 [6] was 193 nM and 179 nM. The TGI [6] was 50000 nM and > 100000 nM, the GI50 [7] was 21.3 nM and the TGI [7] was 73.3 nM. For the same compound, the GI50 [8] was 37.9 nM and 30.6 nM, the GI50 [9] was 202 nM and 146 nM and the TGI [9] was 50000 nM and > 100000 nM. For the same compound, the TGI [10] was greater than 100000 nM, the GI50 [11] was 40.5 nM and 24 nM and the TGI [11] was 50000 nM and > 100000 nM. For the same compound, the GI50 [12] was 38.7 nM and 61.8 nM, the TGI [12] was 50000 nM and > 100000 nM and the GI50 [13] was 1160 nM and 506 nM. The TGI [13] was 50000 nM and > 100000 nM, the GI50 [14] was 14.8 nM and 22.6 nM and the TGI [14] was 30.5 nM and 57.5 nM. The GI50 [15] was 307 nM and 181 nM, the TGI [15] was 50000 nM and > 100000 nM and the GI50 [16] was greater than 100000 nM. The TGI [16] was greater than 100000 nM, the GI50 [17] was 254 nM and 276 nM and the TGI [17] was 50000 nM and > 100000 nM. The GI50 [18] was 257 nM and 89 nM, the TGI [18] was 50000 nM and > 100000 nM and the GI50 [19] was > 50000 nM and 29800 nM. It also gave a TGI [19] greater than 100000 nM, a GI50 [20] of 11.8 nM and a TGI [20] of 24.8 nM. For the same compound, the GI50 [21] was greater than 100000 nM, the TGI [21] was greater than 100000 nM and the GI50 [22] was 88.3 nM. The TGI [22] was greater than 100000 nM, the GI50 [23] was 105 nM and 56.1 nM and the GI50 [24] was 3120 nM and 728 nM. For the same compound, the TGI [24] was 50000 nM and > 100000 nM, the GI50 [25] was 47.1 nM and 33.9 nM and the TGI [25] was 50000 nM and > 100000 nM. The GI50 [26] was 234 nM and 374 nM, the TGI [26] was 1120 nM and 1630 nM and the TGI [27] was 50000 nM and > 100000 nM. For the same compound, the GI50 [28] was 131 nM and 322 nM, the GI50 [29] was 12.1 nM and 19.2 nM and the TGI [29] was 23.6 nM and 33.8 nM. For the same compound, the GI50 [30] was 54 nM and 28.2 nM, the GI50 [31] was > 50000 nM and 9320 nM and the TGI [31] was greater than 100000 nM. The GI50 [32] was greater than 100000 nM, the TGI [32] was greater than 100000 nM and the GI50 [33] was 120 nM and 79.2 nM. The TGI [33] was 50000 nM and > 100000 nM, the GI50 [34] was 300 nM and 327 nM and the GI50 [35] was 267 nM and 151 nM. For the same compound, the TGI [35] was 50000 nM and > 100000 nM, the GI50 [36] was 336 nM and 286 nM and the TGI [36] was 50000 nM and > 100000 nM. The GI50 [37] was > 50000 nM and 6980 nM, the TGI [37] was greater than 100000 nM and the GI50 [38] was 1310 nM and 4200 nM. For the same compound, the TGI [38] was 50000 nM and > 100000 nM, the GI50 [39] was 44.7 nM and 50.1 nM and the TGI [39] was 50000 nM and > 100000 nM. For the same compound, the GI50 [40] was 64.3 nM, the TGI [40] was greater than 100000 nM and the GI50 [41] was 17.2 nM and 26 nM. The TGI [41] was 40.2 nM and 52.8 nM, the GI50 [42] was 24.8 nM and the TGI [42] was 58.3 nM. The GI50 [43] was 45.8 nM and 33.4 nM, the TGI [43] was 264 nM and 96.2 nM and the GI50 [44] was 31.6 nM and 75.6 nM. The GI50 [45] was 72.1 nM and 41.9 nM, the GI50 [46] was greater than 50000 nM and the TGI [46] was greater than 50000 nM. The GI50 [47] was 167 nM, the TGI [47] was 5610 nM and the TGI [48] was greater than 100000 nM. For the same compound, the TGI [49] was greater than 100000 nM, the GI50 [50] was 45.8 nM and 36.6 nM and the GI50 [51] was 1030 nM and 3660 nM. The TGI [51] was 50000 nM and > 100000 nM, the GI50 [52] was 78.2 nM and 121 nM and the GI50 [53] was 33.1 nM and 38.8 nM. The GI50 [54] was 47.2 nM and 70.8 nM, the TGI [54] was 50000 nM and > 100000 nM and the GI50 [55] was greater than 100000 nM. The TGI [55] was greater than 100000 nM, the GI50 [56] was 245 nM and 760 nM and the TGI [56] was 50000 nM and > 100000 nM. For the same compound, the GI50 [57] was 243 nM and 249 nM, the GI50 [58] was 350 nM and 445 nM and the TGI [58] was 50000 nM and > 100000 nM. The GI50 [59] was 195 nM and 33.4 nM.
